Results on 21 molecules are retold here after patent publication US10519154B2, “7-substituted 1-pyridyl-naphthyridine-3-carboxylic acid amides and use thereof” (Bayer Pharma Aktiengesellschaft, priority 2016, dated 2019).

For this test, the target named is T1, human M2 receptor (Homo sapiens, UniProt P08172).
T1 sequence (P08172 1-466): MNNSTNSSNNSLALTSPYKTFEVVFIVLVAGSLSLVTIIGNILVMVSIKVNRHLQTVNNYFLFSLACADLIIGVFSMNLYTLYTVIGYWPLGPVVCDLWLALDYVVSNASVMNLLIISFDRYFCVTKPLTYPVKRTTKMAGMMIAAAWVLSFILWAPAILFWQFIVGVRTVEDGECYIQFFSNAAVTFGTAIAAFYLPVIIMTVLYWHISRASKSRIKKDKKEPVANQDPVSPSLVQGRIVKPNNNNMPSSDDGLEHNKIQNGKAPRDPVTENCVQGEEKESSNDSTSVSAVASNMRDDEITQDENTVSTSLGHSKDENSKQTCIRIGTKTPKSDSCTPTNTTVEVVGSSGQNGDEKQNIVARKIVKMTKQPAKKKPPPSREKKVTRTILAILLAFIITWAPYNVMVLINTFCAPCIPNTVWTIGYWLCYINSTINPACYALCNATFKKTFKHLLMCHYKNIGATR
In words: Functional M2-GIRK1/4 activation test: allosteric potency (EC50) and efficiency. The note with it: for EC50: Receptor activity EC50, CHO-DUKX-M2-GIRK cells, acetylcholine at EC20, in some cases mean of two or more determinations; for Emax: read-out: Efficiency, boosting of the acetylcholine effect at EC20 acetylcholine concentration, CHO-DUKX-M2-GIRK cells.

A word on the EC50: it is the concentration at which the effect is half-maximal. For `O=C(NC(C1CC1)C(F)(F)F)c1cn(-c2ncc(F)cc2F)c2nc(N3C[C@@H](O)[C@@H](O)C3)ccc2c1=O` (stereo partly drawn) [Example 35, N-[1-Cyclopropyl-2,2,2-trifluoroethyl]-1-(3,5-difluoropyridin-2-yl)-7-[(3R,4S)-3,4-dihydroxypyrrolidin-1-yl]-4-oxo-1,4-dihydro-1,8-naphthyridine-3-carboxamide], the EC50 is 170 nM and the Emax worked out at 99.5%.
Turning to `O=C(NC(C1CC1)C(F)(F)F)c1cn(-c2ncc(F)cc2F)c2nc(N3CC4CC4(O)C3)ccc2c1=O` (stereo not drawn) [Example 36, N-[1-Cyclopropyl-2,2,2-trifluoroethyl]-1-(3,5-difluoropyridin-2-yl)-7-[1-hydroxy-3-azabicyclo[3.1.0]hex-3-yl]-4-oxo-1,4-dihydro-1,8-naphthyridine-3-carboxamide], a half-maximal effect (EC50) was put at 22 nM and the Emax amounted to 100%.
Turning to `O=C(NC(C1CC1)C(F)(F)F)c1cn(-c2ncc(F)cc2F)c2nc(N3C[C@@H](O)[C@H](O)C3)ccc2c1=O` (stereo partly drawn) [Example 40, N-[1-Cyclopropyl-2,2,2-trifluoroethyl]-1-(3,5-difluoropyridin-2-yl)-7-[(3R,4R)-3,4-dihydroxypyrrolidin-1-y1]-4-oxo-1,4-dihydro-1,8-naphthyridine-3-carboxamide], the EC50 was determined as 160 nM and the Emax is 100%.
The like results for `CC[C@@H](NC(=O)c1cn(-c2ncc(F)cc2F)c2nc(N3C[C@@H](O)[C@@H](O)C3)ccc2c1=O)C(F)(F)F` [Example 41, 1-(3,5-Difluoropyridin-2-yl)-7-[(3R,4S)-3,4-dihydroxypyrrolidin-1-yl]-4-oxo-N-[(2R)-1,1,1-trifluorobutan-2-yl]-1,4-dihydro-1,8-naphthyridine-3-carboxamide] were, in that order, 330 nM and 100%.
In the case of `CC[C@@H](NC(=O)c1cn(-c2ncc(F)cc2F)c2nc(N3C[C@@H](O)[C@H](O)C3)ccc2c1=O)C(F)(F)F` [Example 42, 1-(3,5-Difluoropyridin-2-yl)-7-[(3R,4R)-3,4-dihydroxypyrrolidin-1-yl]-4-oxo-N-[(2R)-1,1,1-trifluorobutan-2-yl]-1,4-dihydro-1,8-naphthyridine-3-carboxamide], the response was half-maximal at 295 nM (EC50) and the Emax stood at 100%.
Consider `O=C(N[C@H](C1CC1)C(F)(F)F)c1cn(-c2ncc(F)cc2Cl)c2nc(N3C[C@@H](O)[C@@H](O)C3)ccc2c1=O` [Example 50, 1-(3-Chloro-5-fluoropyridin-2-yl)-N-[(1R)-1-cyclopropyl-2,2,2-trifluoroethyl]-7-[(3R,4S)-3,4-dihydroxypyrrolidin-1-yl]-4-oxo-1,4-dihydro-1,8-naphthyridine-3-carboxamide], for which the response was half-maximal at 730 nM (EC50) and the Emax was 92%.
The like results for `O=C(N[C@H](C1CC1)C(F)(F)F)c1cn(-c2ncc(F)cc2Cl)c2nc(N3C[C@@H](O)[C@H](O)C3)ccc2c1=O` [Example 51, 1-(3-Chloro-5-fluoropyridin-2-yl)-N-[(1R)-1-cyclopropyl-2,2,2-trifluoroethyl]-7-[(3R,4R)-3,4-dihydroxypyrrolidin-1-yl]-4-oxo-1,4-dihydro-1,8-naphthyridine-3-carboxamide] were, in that order, 527 nM and 84.3%.
On to `O=C(NC(C(F)(F)F)C(F)(F)F)c1cn(-c2ncc(F)cc2F)c2nc(N3C[C@H](O)[C@@H](O)C3)ccc2c1=O` [Example 60, 1-(3,5-Difluoropyridin-2-yl)-7-[(3S,4S)-3,4-dihydroxypyrrolidin-1-yl]-N-(1,1,1,3,3,3-hexafluoropropan-2-yl)-4-oxo-1,4-dihydro-1,8-naphthyridine-3-carboxamide], for which the EC50 is 275 nM and the Emax stood at 100%.
For `O=C(N[C@@H](C1CC1)C(F)(F)F)c1cn(-c2ncc(F)cc2F)c2nc(N3C[C@H](O)[C@@H](O)C3)ccc2c1=O` [Example 61, N-[(1S)-1-Cyclopropyl-2,2,2-trifluoroethyl]-1-(3,5-difluoropyridin-2-yl)-7-[(3S,4S)-3,4-dihydroxypyrrolidin-1-yl]-4-oxo-1,4-dihydro-1,8-naphthyridine-3-carboxamide], the response was half-maximal at 795 nM (EC50) and the Emax was found to be 100%.
Taken in the same sequence, the figures for `O=C(N[C@@H](C1CC1)C(F)(F)F)c1cn(-c2ncc(F)cc2F)c2nc(N3C[C@@H](O)[C@@H](O)C3)ccc2c1=O` [Example 62, N-[(1S)-1-Cyclopropyl-2,2,2-trifluoroethyl]-1-(3,5-difluoropyridin-2-yl)-7-[(3R,4S)-3,4-dihydroxypyrrolidin-1-yl]-4-oxo-1,4-dihydro-1,8-naphthyridine-3-carboxamide] were 220 nM and 100%.
Take `O=C(N[C@@H](C1CC1)C(F)(F)F)c1cn(-c2ncc(F)cc2F)c2nc(N3C[C@@H](O)[C@H](O)C3)ccc2c1=O` [Example 63, N-[(1S)-1-Cyclopropyl-2,2,2-trifluoroethyl]-1-(3,5-difluoropyridin-2-yl)-7-[(3R,4R)-3,4-dihydroxypyrrolidin-1-yl]-4-oxo-1,4-dihydro-1,8-naphthyridine-3-carboxamide]: the EC50 was determined as 170 nM and the Emax is 100%.
On to `O=C(N[C@H](C1CC1)C(F)(F)F)c1cn(-c2ncc(F)cc2F)c2nc(N3CCNC3=O)ccc2c1=O` [Example 65, N-[(1R)-1-Cyclopropyl-2,2,2-trifluoroethyl]-1-(3,5-difluoropyridin-2-yl)-4-oxo-7-(2-oxoimidazolidin-1-yl)-1,4-dihydro-1,8-naphthyridine-3-carboxamide], for which a half-maximal effect (EC50) was put at 87 nM and the Emax was 100%.
As for `O=C(Nc1c(Cl)cccc1Cl)c1cn(-c2ncc(F)cc2F)c2nc(N3C[C@@H](O)[C@@H](O)C3)ccc2c1=O` [Example 66, N-(2,6-Dichlorophenyl)-1-(3,5-difluoropyridin-2-yl)-7-[(3R,4S)-3,4-dihydroxypyrrolidin-1-yl]-4-oxo-1,4-dihydro-1,8-naphthyridine-3-carboxamide], the EC50 came out at 310 nM and the Emax is 92.5%.
The like results for `O=C(Nc1c(Cl)cccc1Cl)c1cn(-c2ncc(F)cc2F)c2nc(N3C[C@H](O)[C@@H](O)C3)ccc2c1=O` [Example 68, N-(2,6-Dichlorophenyl)-1-(3,5-difluoropyridin-2-yl)-7-[(3S,4S)-3,4-dihydroxypyrrolidin-1-yl]-4-oxo-1,4-dihydro-1,8-naphthyridine-3-carboxamide] were, in that order, 195 nM and 96%.
As for `CC[C@@H](NC(=O)c1cn(-c2ncc(F)cc2F)c2nc(NCC(F)F)ccc2c1=O)C(F)(F)F` [Example 70, 7-[(2,2-Difluoroethyl)amino]-1-(3,5-difluoropyridin-2-yl)-4-oxo-N-[(2R)-1,1,1-trifluorobutan-2-yl]-1,4-dihydro-1,8-naphthyridine-3-carboxamide], a half-maximal response (EC50) required 220 nM and the Emax came out at 91%.
For the molecule `CC[C@@H](NC(=O)c1cn(-c2ncc(F)cc2F)c2nc(N3CCOCC3)ccc2c1=O)C(F)(F)F` [Example 71, 1-(3,5-Difluoropyridin-2-yl)-7-(morpholin-4-yl)-4-oxo-N-[(2R)-1,1,1-trifluorobutan-2-yl]-1,4-dihydro-1,8-naphthyridine-3-carbonxamide], the EC50 is 360 nM and the Emax stood at 97.5%.
In the case of `CC[C@@H](NC(=O)c1cn(-c2ncc(F)cc2F)c2nc(N3CCCC(F)(F)C3)ccc2c1=O)C(F)(F)F` [Example 72, 7-(3,3-Difluoropiperidin-1-yl)-1-(3,5-difluoropyridin-2-yl)-4-oxo-N-[(2R)-1,1,1-trifluorobutan-2-yl]-1,4-dihydro-1,8-naphthyridine-3-carboxamide], the EC50 came to 45 nM and the Emax was 90%.
In the case of `CC(C)C[C@@H](NC(=O)c1cn(-c2ncc(F)cc2F)c2nc(N3C[C@@H](O)CC3=O)ccc2c1=O)C(F)(F)F` [Example 74, 1-(3,5-Difluoropyridin-2-yl)-7-[(4S)-4-hydroxy-2-oxopyrrolidin-1-yl]-4-oxo-N-[(2R)-1,1,1-trifluoro-4-methylpentan-2-yl]-1,4-dihydro-1,8-naphthyridine-3-carboxamide], the midpoint of the response, the EC50, lay at 14 nM and the Emax worked out at 100%.
As for `CC(C)C[C@H](NC(=O)c1cn(-c2ncc(F)cc2F)c2nc(N3C[C@@H](O)CC3=O)ccc2c1=O)C(F)(F)F` [Example 75, 1-(3,5-Difluoropyridin-2-yl)-7-[(4S)-4-hydroxy-2-oxopyrrolidin-1-yl]-4-oxo-N-[(2S)-1,1,1-trifluoro-4-methylpentan-2-yl]-1,4-dihydro-1,8-naphthyridine-3-carboxamide], the EC50 was found to be 19 nM and the Emax stood at 100%.
For the molecule `O=C(NC1(C(F)(F)F)CCCC1)c1cn(-c2ncc(F)cc2F)c2nc(N3C[C@@H](O)CC3=O)ccc2c1=O` [Example 79, 1-(3,5-Difluoropyridin-2-yl)-7-[(4S)-4-hydroxy-2-oxopyrrolidin-1-yl]-4-oxo-N-[1-(trifluoromethyl)cyclopentyl]-1,4-dihydro-1,8-naphthyridine-3-carboxamide], the EC50 stood at 54 nM and the Emax came to 100%.
Regarding `CC(C)(CC(F)(F)F)NC(=O)c1cn(-c2ncc(F)cc2F)c2nc(N3C[C@@H](O)CC3=O)ccc2c1=O` [Example 80, 1-(3,5-Difluoropyridin-2-yl)-7-[(4S)-4-hydroxy-2-oxopyrrolidin-1-yl]-4-oxo-N-(4,4,4-trifluoro-2-methylbutan-2-yl)-1,4-dihydro-1,8-naphthyridine-3-carboxamide], the EC50 was 120 nM and the Emax stood at 100%.
